Tested on: OVCAR-8 complex spheroid, growth inhibition
Experiment: Anticancer human tumor OVCAR-8 cell line growth inhibition [Asc];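 also: spheroids exposed to agents for 7 days before readout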;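 as to viability, T/C: percent viability relative to DMSO vehicle wells taken as 100%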
Details: for IC50: curve of first compound; for viability, T/C: stronger effect = lower value
Outline: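 Concentration series start at each agent's clinical Cmax, or at 10 microM when none is established, and drop in half-log steps; agents are applied alone or together to complex spheroids built with HUVEC and hMSC.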

`CNC(C)C(=O)NC1CN(S(=O)(=O)c2cccc(S(=O)(=O)N3CCC4CCC(C(=O)NC(c5ccccc5)c5ccccc5)N4C(=O)C(NC(=O)C(C)NC)C3)c2)CCC2CCC(C(=O)NC(c3ccccc3)c3ccccc3)N2C1=O` (configuration not stated) + Cc1c(S(C)(=O)=O)c(-c2cc(F)cc(N3CCN(c4ccc(NS(=O)(=O)c5ccc(NC(CCN6CCC(C(=O)OCCCP(=O)(O)O)CC6)CSc6ccccc6)c(S(=O)(=O)C(F)(F)F)c5)cc4)CC3)c2)c(-c2ccc(Cl)cc2)n1C(C)C was tested, and the IC50 (second compound 0.0316 µM) was over 1000 nM, the IC50 (second compound 0.1 µM) was over 1000 nM and the IC50 (second compound 0.316 µM) was over 1000 nM. It also gave an IC50 (second compound 1 µM) of over 1000 nM, an IC50 (second compound 3.16 µM) of over 1000 nM and an IC50 (second compound 10 µM) of over 1000 nM. The viability, T/C (second compound 0.0316 µM, first compound 0.00316 µM) was 97.5%, the viability, T/C (second compound 0.0316 µM, first compound 0.01 µM) was 94.6% and the viability, T/C (second compound 0.0316 µM, first compound 0.0316 µM) was 88.4%. For the same molecule, the viability, T/C (second compound 0.0316 µM, first compound 0.1 µM) was 90.9%, the viability, T/C (second compound 0.0316 µM, first compound 0.316 µM) was 67.5% and the viability, T/C (second compound 0.0316 µM, first compound 1 µM) was 57.5%. It also gave a viability, T/C (second compound 0.1 µM, first compound 0.00316 µM) of 92.2%, a viability, T/C (second compound 0.1 µM, first compound 0.01 µM) of 84.5% and a viability, T/C (second compound 0.1 µM, first compound 0.0316 µM) of 80.8%. The viability, T/C (second compound 0.1 µM, first compound 0.1 µM) was 76.5%, the viability, T/C (second compound 0.1 µM, first compound 0.316 µM) was 64.5% and the viability, T/C (second compound 0.1 µM, first compound 1 µM) was 59.7%. It also gave a viability, T/C (second compound 0.316 µM, first compound 0.00316 µM) of 106%, a viability, T/C (second compound 0.316 µM, first compound 0.01 µM) of 79.2% and a viability, T/C (second compound 0.316 µM, first compound 0.0316 µM) of 86.8%. It also gave a viability, T/C (second compound 0.316 µM, first compound 0.1 µM) of 80.3%, a viability, T/C (second compound 0.316 µM, first compound 0.316 µM) of 58.9% and a viability, T/C (second compound 0.316 µM, first compound 1 µM) of 53.1%. For the same molecule, the viability, T/C (second compound 1 µM, first compound 0.00316 µM) was 123%, the viability, T/C (second compound 1 µM, first compound 0.01 µM) was 97.1% and the viability, T/C (second compound 1 µM, first compound 0.0316 µM) was 86.8%. The viability, T/C (second compound 1 µM, first compound 0.1 µM) was 80.6%, the viability, T/C (second compound 1 µM, first compound 0.316 µM) was 59.4% and the viability, T/C (second compound 1 µM, first compound 1 µM) was 60.1%. It also gave a viability, T/C (second compound 3.16 µM, first compound 0.00316 µM) of 91.2%, a viability, T/C (second compound 3.16 µM, first compound 0.01 µM) of 86.8% and a viability, T/C (second compound 3.16 µM, first compound 0.0316 µM) of 84.7%. For the same molecule, the viability, T/C (second compound 3.16 µM, first compound 0.1 µM) was 67.3%, the viability, T/C (second compound 3.16 µM, first compound 0.316 µM) was 57.5% and the viability, T/C (second compound 3.16 µM, first compound 1 µM) was 58.2%. For the same molecule, the viability, T/C (second compound 10 µM, first compound 0.00316 µM) was 101%, the viability, T/C (second compound 10 µM, first compound 0.01 µM) was 78.2% and the viability, T/C (second compound 10 µM, first compound 0.0316 µM) was 78.9%. For the same molecule, the viability, T/C (second compound 10 µM, first compound 0.1 µM) was 60.2%, the viability, T/C (second compound 10 µM, first compound 0.316 µM) was 52% and the viability, T/C (second compound 10 µM, first compound 1 µM) was 59.2%.

Reference: PubChem BioAssay AID1963437 (Molecular Pharmacology Branch, DTP, NCI, 2024)
